# Measurements as given in patent publication US20230091225A1, “Bifunctional chimeric heterocyclic compounds for targeted degradation of androgen receptors and use thereof” (HINOVA PHARMACEUTICALS INC., priority 2019, published 2023).
# Molecular target: T1, androgen receptor (AR) (Homo sapiens, UniProt P10275)
# T1 sequence (P10275 1-920): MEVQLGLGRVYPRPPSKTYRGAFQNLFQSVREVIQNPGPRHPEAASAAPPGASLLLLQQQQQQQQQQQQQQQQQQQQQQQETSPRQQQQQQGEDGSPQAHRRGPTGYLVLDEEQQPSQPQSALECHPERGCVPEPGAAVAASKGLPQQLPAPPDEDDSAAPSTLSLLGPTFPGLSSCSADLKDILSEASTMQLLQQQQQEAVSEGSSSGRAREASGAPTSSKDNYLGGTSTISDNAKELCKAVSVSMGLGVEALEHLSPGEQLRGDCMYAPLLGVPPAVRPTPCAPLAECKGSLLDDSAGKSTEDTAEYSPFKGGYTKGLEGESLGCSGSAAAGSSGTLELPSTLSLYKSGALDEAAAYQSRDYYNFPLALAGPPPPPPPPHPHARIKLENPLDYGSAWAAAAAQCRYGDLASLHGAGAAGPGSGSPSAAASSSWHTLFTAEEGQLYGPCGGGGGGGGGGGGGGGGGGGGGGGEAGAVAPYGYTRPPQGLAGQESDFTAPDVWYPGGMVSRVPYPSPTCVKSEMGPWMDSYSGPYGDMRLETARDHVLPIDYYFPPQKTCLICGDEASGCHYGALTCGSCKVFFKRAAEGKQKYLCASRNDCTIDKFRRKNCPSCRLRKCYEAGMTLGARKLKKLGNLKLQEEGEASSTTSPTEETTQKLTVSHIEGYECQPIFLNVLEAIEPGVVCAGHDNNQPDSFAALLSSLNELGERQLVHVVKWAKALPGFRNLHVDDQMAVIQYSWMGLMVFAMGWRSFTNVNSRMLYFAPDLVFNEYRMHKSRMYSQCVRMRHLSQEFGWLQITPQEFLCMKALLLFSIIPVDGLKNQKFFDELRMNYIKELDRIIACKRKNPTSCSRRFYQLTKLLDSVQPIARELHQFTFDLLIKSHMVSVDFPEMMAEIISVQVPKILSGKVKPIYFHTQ
# Test: Degradation of androgen receptor (AR) protein in VCaP cells by Western blot
# Type: cell-based
# Settings: percentage of degraded AR at 100 nM, VCaP cells, 16 h
# Protocol: Determination of the Degradation Activity of the Compound on Androgen Receptor (AR) Protein by Western Blot
# 1) VCaP cells were subcultured in cell culture media, and then the cells in good growth condition were seeded in a 12-well plate at 1 ml/well (5×10^5 cells/well), and cultured overnight in a 37° C., 5% CO2 cell incubator. 2) The test compound was prepared into a 10 mM stock solution with dimethyl sulfoxide (DMSO). Prior to use, the solution was diluted 3 times with DMSO. […] of the diluted compound solution was added to the cell culture well (ensuring that the DMSO concentration in the culture system was 0.1%), and two wells were set for each concentration. The plate was gently shaken to mix. In addition, the experiment included negative control wells (containing equal amount of DMSO) and positive control wells. 3) After culturing 16 h. the cells were lysed with RIPA cell lysate, and the protein was extracted. The protein concentration was measured with BCA kit. 5-fold concentrated protein loading buffer was added, and after heated at 100° C. for 5 min. the sample was stored at −20° C. 4) for each well, 30 μg of protein was loaded on polyacrylamide gel for electrophoresis. 5) The protein was transferred from polyacrylamide gel to PVDF membrane, and then 5% skim milk was added to close for 1 h at room temperature. The first antibody (Androgen Receptor (D6F11) XP Rabbit mAb and Anti-β-Actin Rabbit mAb) was added and incubated overnight at 4° C. The membrane was washed with TBST solution three times. 10 min for each time. The secondary antibody (horseradish peroxidase labeled goat […]) was added and incubated at room temperature for 2 h, and then the membrane was washed with TBST solution three times. 10 min for each time.
# Finally, ECL chemiluminescence solution was added, and then photos were taken with automatic chemiluminescence instrument to collect pictures for analysis.
SMILES,inhibition at 0.1 µM [%],% degradation
"N#Cc1ccc(O[C@H]2CC[C@H](NC(=O)c3cnc(N4CCC5(CCN(C6CCN(c7cc8c(cc7F)C(=O)N(C7CCC(=O)NC7=O)C8=O)CC6)C5)C4)cn3)CC2)cc1Cl (stereo partly drawn) [Compound 167, N-((1r,4r)-4-(3-chloro-4-cyanophenoxy)cyclohexyl)-5-(7-(1-(2-(2,6-dioxopiperidin-3-yl)-6-fluoro-1,3-dioxoisoindolin-5-yl)piperidine-4-yl)-2,7-diazaspiro[4.4]nonan-2-yl)pyrazine-2-carboxamide]",50 to 79,
N#Cc1ccc(O[C@H]2CC[C@H](N3Cc4nc(NC5CCN(CC6CCN(c7ccc8c(c7)C(=O)N(C7CCC(=O)NC7=O)C8=O)CC6)CC5)ccc4C3=O)CC2)cc1Cl (stereo partly drawn) [Compound 172],< 25,
N#Cc1ccc(O[C@H]2CC[C@H](N3Cc4nc(N5CCC(CN6CCC(Nc7ccc8c(c7)C(=O)N(C7CCC(=O)NC7=O)C8=O)CC6)CC5)ccc4C3=O)CC2)cc1Cl (stereo partly drawn) [Compound 173],< 25,
"N#Cc1ccc(OC2C[C@@H]3CN(C(=O)c4cnc(N5CCC(CN6CCN(c7ccc8c(c7)C(=O)N(C7CCC(=O)NC7=O)C8=O)CC6)CC5)cn4)C[C@@H]3C2)cc1Cl (stereo partly drawn) [Compound 174, 2-chloro-4-(((3aR,5r,6aS)-2-(5-(4-((4-(2-(2,6-dioxopiperidin-3-yl)-1,3-dioxoisoindolin-5-yl)piperazin-1-yl)methyl)piperidin-1-yl)pyrazine-2-carbonyl)octahydrocyclopenta[c]pyrrol-5-yl)oxy)benzonitrile]",< 25,
"N#Cc1ccc(O[C@H]2C[C@@H]3CN(C(=O)c4ccc(N5CCC(CN6CCN(c7ccc8c(c7)C(=O)N(C7CCC(=O)NC7=O)C8=O)CC6)CC5)nn4)C[C@@H]3C2)cc1Cl (stereo partly drawn) [Compound 175, 2-chloro-4-(((3aR,5s,6aS)-2-(6-(4-((4-(2-(2,6-dioxopiperidin-3-yl)-1,3-dioxoisoindolin-5-yl)piperazin-1-yl)methyl)piperidin-1-yl)pyridazine-3-carbonyl)octahydrocyclopenta[c]pyrrol-5-yl)oxy)benzonitrile]",< 25,
"N#Cc1ccc(O[C@H]2CC[C@H](NC(=O)c3cnc(N4C[C@@H]5[C@@H](CN6CCN(c7cc8c(cc7F)C(=O)N(C7CCC(=O)NC7=O)C8=O)CC6)[C@@H]5C4)cn3)CC2)cc1Cl (stereo partly drawn) [Compound 176, N-((1r,4R)-4-(3-chloro-4-cyanophenoxy)cyclohexyl)-5-((1R,5S,6S)-6-((4-(2-(2,6-dioxopiperidin-3-yl)-6-fluoro-1,3-dioxoisoindolin-5-yl)piperazin-1-yl)methyl)-3-azabicyclo[3.1.0]hexan-3-yl)pyrazine-2-carboxamide]",50 to 79,
"N#Cc1ccc(O[C@H]2CC[C@H](NC(=O)c3cnc(N4C[C@@H]5[C@@H](CN6CCN(c7ccc8c(c7)C(=O)N(C7CCC(=O)NC7=O)C8=O)CC6)[C@@H]5C4)cn3)CC2)cc1Cl (stereo partly drawn) [Compound 177, N-((1r,4R)-4-(3-chloro-4-cyanophenoxy)cyclohexyl)-5-((1R,5S,6S)-6-((4-(2-(2,6-dioxopiperidin-3-yl)-1,3-dioxoisoindolin-5-yl)piperazin-1-yl)methyl)-3-azabicyclo[3.1.0]hexan-3-yl)pyrazine-2-carboxamide]",50 to 79,
"N#Cc1ccc(OC2CCC(NC(=O)c3ccc(N4C[C@@H]5C(CN6CCN(c7cc8c(cc7F)C(=O)N(C7CCC(=O)NC7=O)C8=O)CC6)[C@@H]5C4)nn3)CC2)cc1Cl (stereo partly drawn) [Compound 178, N-((1r,4R)-4-(3-chloro-4-cyanophenoxy)cyclohexyl)-6-((1R,5S,6S)-6-((4-(2-(2,6-dioxopiperidin-3-yl)-6-fluoro-1,3-dioxoisoindolin-5-yl)piperazin-1-yl)methyl)-3-azabicyclo[3.1.0]hexan-3-yl)pyridazine-3-formamide]",,B (79%-50%)
"N#Cc1ccc(O[C@H]2CC[C@H](NC(=O)c3ccc(N4C[C@@H]5[C@@H](CN6CCN(c7ccc8c(c7)C(=O)N(C7CCC(=O)NC7=O)C8=O)CC6)[C@@H]5C4)nn3)CC2)cc1Cl (stereo partly drawn) [Compound 179, N-((1r,4R)-4-(3-chloro-4-cyanophenoxy)cyclohexyl)-6-((1R,5S,6S)-6-((4-(2-(2,6-dioxopiperidin-3-yl)-1,3-dioxoisoindolin-5-yl)piperazin-1-yl)methyl)-3-azabicyclo[3.1.0]hexan-3-yl)pyridazine-3-formamide]",25 to 49,
"N#Cc1ccc(O[C@H]2CC[C@H](NC(=O)c3ccc(N4CCC(CN5CC6(CCN(c7cc8c(cc7F)C(=O)N(C7CCC(=O)NC7=O)C8=O)C6)C5)CC4)nn3)CC2)cc1Cl (stereo partly drawn) [Compound 180, N-((1r,4r)-4-(3-chloro-4-cyanophenoxy)cyclohexyl)-6-(4-((6-(2-(2,6-dioxopiperidin-3-yl)-6-fluoro-1,3-dioxoisoindolin-5-yl)-2,6-diazaspiro[3.4]octan-2-yl)methyl)piperidin-1-yl)pyridazine-3-formamide]",> 80,
"CC1(C)C(NC(=O)c2ccc(N3C[C@@H]4C(CN5CCN(c6cc7c(cc6F)C(=O)N(C6CCC(=O)NC6=O)C7=O)CC5)[C@@H]4C3)nn2)C(C)(C)C1Oc1ccc(C#N)c(Cl)c1 (stereo partly drawn) [Compound 181, N-((1r,3R)-3-(3-chloro-4-cyanophenoxy)-2,2,4,4-tetramethylcyclobutyl)-6-((1R,5S,6S)-6-((4-(2-(2,6-dioxopiperidin-3-yl)-6-fluoro-1,3-dioxoisoindolin-5-yl)piperazin-1-yl)methyl)-3-azabicyclo[3.1.0]hexan-3-yl)pyridazine-3-formamide]",,B (79%-50%)
"CC1(C)[C@H](NC(=O)c2cnc(N3C[C@@H]4[C@@H](CN5CCN(c6cc7c(cc6F)C(=O)N(C6CCC(=O)NC6=O)C7=O)CC5)[C@@H]4C3)cn2)C(C)(C)[C@H]1Oc1ccc(C#N)c(Cl)c1 (stereo partly drawn) [Compound 182, N-((1r,3R)-3-(3-chloro-4-cyanophenoxy)-2,2,4,4-tetramethylcyclobutyl)-5-((1R,5S,6S)-6-((4-(2-(2,6-dioxopiperidin-3-yl)-6-fluoro-1,3-dioxoisoindolin-5-yl)piperazin-1-yl)methyl)-3-azabicyclo[3.1.0]hexan-3-yl)pyrazine-2-carboxamide]",50 to 79,
"N#Cc1ccc(O[C@H]2CC[C@H](NC(=O)c3ccc(N4CCC5(CN(CC6CCN(c7cc8c(cc7F)C(=O)N(C7CCC(=O)NC7=O)C8=O)CC6)C5)C4)nn3)CC2)cc1Cl (stereo partly drawn) [Compound 183, N-((1r,4r)-4-(3-chloro-4-cyanophenoxy)cyclohexyl)-6-(2-((1-(2-(2,6-dioxopiperidin-3-yl)-6-fluoro-1,3-dioxoisoindolin-5-yl)piperidine-4-yl)methyl)-2,6-diazaspiro[3.4]octan-6-yl)pyridazine-3-formamide]",> 80,
"N#Cc1ccc(O[C@H]2CC[C@H](NC(=O)c3ccc(N4CCC(CN5CCC6(C5)CN(c5cc7c(cc5F)C(=O)N(C5CCC(=O)NC5=O)C7=O)C6)CC4)nn3)CC2)cc1Cl (stereo partly drawn) [Compound 184, N-((1r,4r)-4-(3-chloro-4-cyanophenoxy)cyclohexyl)-6-(4-((2-(2-(2,6-dioxopiperidin-3-yl)-6-fluoro-1,3-dioxoisoindolin-5-yl)-2,6-diazaspiro[3.4]octan-6-yl)methyl)piperidin-1-yl)pyridazine-3-formamide]",> 80,
"N#Cc1ccc(O[C@H]2CC[C@H](NC(=O)c3ccc(N4CCC(CN5CCC6(C5)CN(c5ccc7c(c5)C(=O)N(C5CCC(=O)NC5=O)C7=O)C6)CC4)nn3)CC2)cc1Cl (stereo partly drawn) [Compound 185, N-((1r,4r)-4-(3-chloro-4-cyanophenoxy)cyclohexyl)-6-(4-((2-(2-(2,6-dioxopiperidin-3-yl)-1,3-dioxoisoindolin-5-yl)-2,6-diazaspiro[3.4]octan-6-yl)methyl)piperidin-1-yl)pyridazine-3-formamide]",> 80,
